According to US20160176867A1, “MODIFIED BET-PROTEIN-INHIBITING DIHYDROQUINOXALINONES AND DIHYDROPYRIDOPYRAZINONES” (BAYER PHARMA AKTIENGESELLSCHAFT, priority 2013, published 2016):
pIC50: −log10 of the molar value.

How the values were obtained:
[1] = target: T1, BRD4 bromo domain 2 [BRD4(2)] (Homo sapiens, UniProt O60885); experiment: BRD4/acetylated peptide H4 binding assay (TR-FRET), BRD4 bromo domain 2; conditions: inhibition of BRD4(2)/Ac-H4 peptide interaction
T1 construct: N-terminally His6-tagged BRD4(2) (amino acids 357-445); made in house; host or cells: E. coli
Outline: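 Binding of His6-BRD4(2) (aa 357-445, 100 nM final) to biotinylated tetra-acetylated H4 peptide read by TR-FRET (665/620 nm). Compound preincubated 10 min at 22 °C, then 1 h at 22 °C plus ≥3 h at 4 °C. Eleven concentrations (0.1 nM–20 μM) in duplicate; IC50 by 4-parameter fit.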

CHL-1 cells = experiment: Cell proliferation assay (alamarBlue), CHL-1; assay type: cell-based; conditions: Homo sapiens; CHL-1 (melanoma, BRAF wild-type), 96 hours
Protocol: In accordance with the invention, the ability of the substances to inhibit cell proliferation was determined. Cell viability was determined by means of the alamarBlue® reagent (Invitrogen) in a Victor X3 Multilabel Reader (Perkin Elmer). The excitation wavelength was 530 nm and the emission wavelength […].
The CHL-1 cells (ATCC, CRL-9446) were sown at a concentration of 1000 cells/well in 100 μl of growth medium (DMEM with glutamine, 10% FCS) on 96-well microtitre plates.
After overnight incubation at 37° C., the fluorescence values were determined (CI values). Then the plates were treated with various substance dilutions (1E-5 M, 3E-6 M, 1E-6 M, 3E-7 M, 1E-7 M, 3E-8 M, 1E-8 M) and incubated at 37° C. over 96 hours (MOLM-13, B16F10, CHL-1 cells) or 120 hours (MOLP-8 cells). Subsequently, the fluorescence values were determined (CO values). For the data analysis, the CI values were subtracted from the CO values and the results were compared between cells which had been treated with various dilutions of the substance or only with buffer solution. The IC50 values (substance concentration needed for 50% inhibition of cell proliferation) were calculated therefrom.

SMILES | pIC50 [1] | pIC50 (CHL-1 cells)
C[C@@H]1C(=O)N(C)c2ccc(Nc3ccc4c(c3)S(=O)(=O)NC4)nc2N1C1CCOCC1 [Example 56, (3R)-6-[(1,1-dioxido-2,3-dihydro-1,2-benzothiazol-6-yl)amino]-1,3-dimethyl-4-(tetrahydro-2H-pyran-4-yl)-3,4-dihydropyrido[2,3-b]pyrazin-2(1H)-one] | 7.11 | 6.74
C[C@@H]1C(=O)N(C)c2ccc(Nc3cccc(S(=O)(=O)N4CCOCC4)c3)nc2N1C1CCN(C)CC1 [Example 47, (3R)-1,3-dimethyl-4-(1-methylpiperidin-4-yl)-6-{[3-(morpholin-4-ylsulphonyl)phenyl]-amino}-3-4-dihydropyrido-[2,3-b]pyrazin-2(1H)-one] | 7.23 | 7.70
C[C@@H]1C(=O)N(C)c2ccc(Nc3cccc(S(=O)(=O)N4CCN(CC(F)(F)F)CC4)c3)nc2N1C1CCOCC1 [Example 37, (3R)-1,3-dimethyl-4-(tetrahydro-2H-pyran-4-yl)-6-[(3-{[4-(2,2,2-trifluoroethyl)piperazin-1-yl]sulphonyl}phenyl)-amino]-3,4-dihydropyrido-[2,3-b]pyrazin-2(1H)-one] | 7.80 | 7.28
C[C@@H]1C(=O)N(C)c2ccc(N(C)c3cccc(S(=O)(=O)N(C)C)c3)nc2N1C1CCOCC1 [Example 54, 3-{[(3R)-1,3-dimethyl-2-oxo-4-(tetrahydro-2H-pyran-4-yl)-1,2,3,4-tetrahydropyrido[2,3-b]pyrazin-6-yl](methyl)-amino}-N,N-dimethyl-benzenesulphonamide] | 7.21 | 6.81
C[C@@H]1C(=O)N(C)c2ccc(Nc3cccc(S(N)(=O)=O)c3)nc2N1C1CCOCC1 [Example 58, 3-{[(3R)-1,3-dimethyl-2-oxo-4-(tetrahydro-2H-pyran-4-yl)-1,2,3,4-tetrahydropyrido[2,3-b]pyrazin-6-yl]amino}-benzenesulphonamide] | 6.99 | 6.52
C[C@@H]1C(=O)N(C)c2ccc(Nc3cccc(S(=O)(=O)N4CCN(C)CC4)c3)nc2N1C1CCNCC1 [Example 125, (3R)-1,3-dimethyl-6-({3-[(4-methylpiperazin-1-yl)sulphonyl]phenyl}amino)-4-(piperidin-4-yl)-3,4-dihydropyrido[2,3-b]pyrazin-2(1H)-one] | 7.36 | 5.65
C[C@@H]1C(=O)N(C)c2ccc(Nc3cccc(S(=O)(=O)N4CC5(CCC5)C4)c3)nc2N1C1CCNCC1 [Example 122, (3R)-6-{[3-(2-Azaspiro[3.3]hept-2-ylsulphonyl)phenyl]amino}-1,3-dimethyl-4-(piperidin-4-yl)-3,4-dihydropyrido[2,3-b]pyrazin-2(1H)-one] | 7.03 | 6.15
C[C@@H]1C(=O)N(C)c2ccc(Nc3cccc(C(=O)N(C)C)c3)cc2N1C1CCNCC1 [Example 133, 3-{[(3R)-1,3-dimethyl-2-oxo-4-(piperidin-4-yl)-1,2,3,4-tetrahydroquinoxalin-6-yl]amino}-N,N-dimethylbenzamide] | 6.00 | < 5.00
COCCN1c2nc(Nc3cccc(S(=O)(=O)N4CCN(C)CC4)c3)ccc2N(C)C(=O)C1C (racemic) [Example 53, 4-(2-methoxyethyl)-1,3-dimethyl-6-({3-[(4-methylpiperazin-1-yl)sulphonyl]phenyl}-amino)-3,4-dihydropyrido-[2,3-b]pyrazin-2(1H)-one] | 6.73 | 6.75
COCCN1c2nc(Nc3cccc(S(=O)(=O)N4CCOCC4)c3)ccc2N(C)C(=O)C1C (racemic) [Example 49, 4-(2-methoxyethyl)-1,3-dimethyl-6-{[3-(morpholin-4-ylsulphonyl)phenyl]amino}-3,4-dihydropyrido[2,3-b]pyrazin-2(1H)-one] | 6.80 | 6.82
CC(C)CN1c2nc(Nc3cccc(S(=O)(=O)N[C@H]4CC[C@H](N5CCN(CC6CC6)CC5)CC4)c3)ccc2N(C)C(=O)[C@H]1C [Example 45, N-{trans-4-[4-(cyclopropylmethyl)-piperazin-1-yl]cyclohexyl}-3-{[(3R)-4-isobulyl-1,3-dimethyl-2-oxo-1,2,3,4-tetrahydropyrido[2,3-b]pyrazin-6-yl]amino}-benzenesulphonamide] | 6.83 | 7.09
C[C@@H]1C(=O)N(C)c2ccc(Nc3cccc(C(=O)NC4CCN(C)CC4)c3)nc2N1Cc1ccccc1 [Example 73, 3-{[(3R)-4-benzyl-1,3-dimethyl-2-oxo-1,2,3,4-tetrahydropyrido[2,3-b]pyrazin-6-yl]amino}-N-(1-methylpiperidin-4-yl)benzamide] | 7.07 | 7.10
C[C@@H]1C(=O)N(C)c2ccc(Nc3cccc(C(=O)NCCN4CCN(C)CC4)c3)nc2N1Cc1ccccc1 [Example 74, 3-{[(3R)-4-benzyl-1,3-dimethyl-2-oxo-1,2,3,4-tetrahydropyrido[2,3-b]pyrazin-6-yl]amino}-N-[2-(4-methylpiperazin-1-yl)ethyl]benzamide] | 7.04 | 7.08
C[C@@H]1C(=O)N(C)c2ccc(Nc3cccc(S(=O)(=O)NC4CCN(C)CC4)c3)nc2N1Cc1ccccc1 [Example 33, 3-{[(3R)-4-benzyl-1,3-dimethyl-2-oxo-1,2,3,4-tetrahydropyrido[2,3-b]pyrazin-6-yl]amino}-N-(1-methylpiperidin-4-yl)benzenesulphonamide] | 7.12 | 7.89
C[C@@H]1C(=O)N(C)c2ccc(Nc3cccc(S(=O)(=O)NC4CCN(C)CC4)c3)nc2N1C1CCCCCC1 [Example 48, 3-{[(3R)-4-cycloheptyl-1,3-dimethyl-2-oxo-1,2,3,4-tetrahydropyrido-[2,3-b]pyrazin-6-yl]amino}-N-(1-methylpiperidin-4-yl)benzenesulphonamide] | 7.00 | 6.95
C[C@@H]1C(=O)N(C)c2ccc(Nc3cccc(S(=O)(=O)NC4CCN(C)CC4)c3)nc2N1C1CCN(C(=O)OC(C)(C)C)CC1 [Example 57, tert-butyl 4-[(3R)-1,3-dimethyl-6-({3-[(1-methylpiperidin-4-yl)sulphamoyl]phenyl}-amino)-2-oxo-2,3-dihydro-pyrido[2,3-b]pyrazin-4(1H)-yl]piperidine-1-carboxylate] | 6.75 | 6.76
C[C@@H]1C(=O)N(C)c2ccc(Nc3cccc(S(=O)(=O)NCCN(C)C)c3)nc2N1C1CCN(C(=O)OC(C)(C)C)CC1 [Example 59, tert-butyl 4-[(3R)-6-[(3-{[2-(dimethylamino)ethyl]-sulphamoyl}phenyl)amino]-1,3-dimethyl-2-oxo-2,3-dihydropyrido[2,3-b]pyrazin-4(1H)-yl]piperidine-1-carboxylate] | 7.11 | 6.69
C[C@@H]1C(=O)N(C)c2ccc(Nc3cccc(C(=O)N[C@H]4CC[C@H](N5CCN(CC6CC6)CC5)CC4)c3)nc2N1Cc1ccccc1 [Example 72, 3-{[(3R)-4-benzyl-1,3-dimethyl-2-oxo-1,2,3,4-tetrahydropyrido[2,3-b]pyrazin-6-yl]amino}-N-{trans-4-[4-(cyclo-propylmethyl)piperazin-1-yl]cyclohexyl}benzamide] | 6.59 | 6.97
C[C@@H]1C(=O)N(C)c2ccc(Nc3cccc(S(=O)(=O)N4CC(F)(F)C4)c3)nc2N1C1CCN(C)CC1 [Example 29, (3R)-6-({3-[(3,3-Difluoroazetidin-1-yl)sulphonyl]phenyl}amino)-1,3-dimethyl-4-(1-methylpiperidin-4-yl)-3,4-dihydropyrido[2,3-b]pyrazin-2(1H)-one] | 7.19 | 7.44
